What was measured:
Test in all cases: relative viability (nuclei count vs DMSO), 5 days (fraction); higher = more cells survive
Imatinib + Linsitinib = compound: Cc1ccc(NC(=O)c2ccc(CN3CCN(C)CC3)cc2)cc1Nc1nccc(-c2cccnc2)n1 [Imatinib] + C[C@]1(O)C[C@@H](c2nc(-c3ccc4ccc(-c5ccccc5)nc4c3)c3c(N)nccn32)C1 [Linsitinib] (partner 1 µM)
In short: (§1)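 Lung cancer cell lines were pin-tool dosed in 1536-well plates on the day after seeding, with either a lone drug or a fixed anchor-drug dose plus five library-drug doses (not always all listed) in √10 steps. Nuclei were counted on 4× images after 5 days. Relative viability is the ratio of treated-well to vehicle-well nuclei counts, with each value a median of duplicate plates.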

Imatinib + Olaparib = compound: Cc1ccc(NC(=O)c2ccc(CN3CCN(C)CC3)cc2)cc1Nc1nccc(-c2cccnc2)n1 [Imatinib] + O=C(c1cc(Cc2n[nH]c(=O)c3ccccc23)ccc1F)N1CCN(C(=O)C2CC2)CC1 [Olaparib] (partner 8 µM)
In short: as §1

Imatinib + Navitoclax = compound: Cc1ccc(NC(=O)c2ccc(CN3CCN(C)CC3)cc2)cc1Nc1nccc(-c2cccnc2)n1 [Imatinib] + CC1(C)CCC(c2ccc(Cl)cc2)=C(CN2CCN(c3ccc(C(=O)NS(=O)(=O)c4ccc(N[C@H](CCN5CCOCC5)CSc5ccccc5)c(S(=O)(=O)C(F)(F)F)c4)cc3)CC2)C1 [Navitoclax] (partner 0.5 µM)
In short: as §1

Imatinib + Pemetrexed = compound: Cc1ccc(NC(=O)c2ccc(CN3CCN(C)CC3)cc2)cc1Nc1nccc(-c2cccnc2)n1 [Imatinib] + Nc1nc2[nH]cc(CCc3ccc(C(=O)N[C@@H](CCC(=O)O)C(=O)O)cc3)c2c(=O)[nH]1 [Pemetrexed] (partner 0.2 µM)
In short: as §1

Row | Cell Line | relative viability (Imatinib + Linsitinib; first compound 0.02 µM) | relative viability (Imatinib + Linsitinib; first compound 0.2 µM) | relative viability (Imatinib + Linsitinib; first compound 0.6325 µM) | relative viability (Imatinib + Linsitinib; first compound 2 µM) | relative viability (Imatinib + Olaparib; first compound 0.02 µM) | relative viability (Imatinib + Olaparib; first compound 0.06325 µM) | relative viability (Imatinib + Olaparib; first compound 0.2 µM) | relative viability (Imatinib + Olaparib; first compound 0.6325 µM) | relative viability (Imatinib + Olaparib; first compound 2 µM) | relative viability (Imatinib + Navitoclax; first compound 0.02 µM) | relative viability (Imatinib + Navitoclax; first compound 0.2 µM) | relative viability (Imatinib + Navitoclax; first compound 0.6325 µM) | relative viability (Imatinib + Navitoclax; first compound 2 µM) | relative viability (Imatinib + Pemetrexed; first compound 0.02 µM) | relative viability (Imatinib + Pemetrexed; first compound 0.06325 µM) | relative viability (Imatinib + Pemetrexed; first compound 0.2 µM) | relative viability (Imatinib + Pemetrexed; first compound 0.6325 µM) | relative viability (Imatinib + Pemetrexed; first compound 2 µM) | relative viability (Imatinib + Linsitinib; first compound 0.06325 µM) | relative viability (Imatinib + Navitoclax; first compound 0.06325 µM)
1 | NCI-H1944 | 1.21 | 1.12 | 1.07 | 1.18 | 0.448 | 0.337 | 0.414 | 0.394 | 0.459 | 1.03 | 1.05 | 1.07 | 1.08 | 0.881 | 0.642 | 0.695 | 0.656 | 0.561 |  | 
2 | NCI-H1975 | 0.977 | 1.07 | 0.843 | 0.958 | 0.756 | 0.815 | 0.947 | 0.803 | 0.712 | 1.11 | 1.22 | 1.03 | 1.13 | 0.308 | 0.299 | 0.299 | 0.309 | 0.284 | 0.965 | 1.27
3 | NCI-H1993 |  | 0.747 | 0.72 | 0.707 | 1.15 | 1.04 | 1.16 | 0.968 | 0.983 |  | 0.953 | 0.851 | 0.776 | 0.581 | 0.44 | 0.501 | 0.616 | 0.582 | 0.73 | 1
4 | NCI-H2009 | 1.19 | 1.21 | 1.24 | 1.24 | 0.692 | 0.882 | 0.796 | 0.671 | 0.661 | 1.22 | 1.23 | 1.17 | 1.11 | 1.11 | 1.17 | 1.05 | 0.984 | 0.993 | 1.32 | 1.22
5 | NCI-H2023 | 0.778 | 0.796 | 0.682 | 0.719 | 0.552 | 0.472 | 0.45 | 0.62 | 0.408 | 1.08 | 1.12 | 0.958 | 0.898 | 0.224 | 0.318 | 0.304 |  | 0.27 | 0.871 | 1.23
6 | NCI-H2085 | 0.93 | 1.11 | 0.95 | 0.825 | 0.765 | 0.759 | 0.825 | 0.784 | 0.742 | 1.16 | 1.33 | 1.13 |  | 0.837 | 0.892 | 0.917 |  | 0.834 | 0.823 | 1.07
7 | NCI-H2087 | 1.09 | 1.07 | 0.991 | 0.85 | 0.63 |  | 0.619 | 0.595 |  | 1.07 | 1.21 | 1.11 | 0.956 | 0.692 |  | 0.749 | 0.58 |  | 1 | 1.03
8 | NCI-H2126 | 0.724 | 0.728 | 0.742 | 0.758 | 0.892 | 0.742 | 0.92 | 0.985 | 0.924 | 0.883 | 0.865 | 0.851 | 0.824 | 0.667 | 0.524 | 0.704 | 0.634 | 0.725 |  | 
9 | NCI-H2228 | 0.742 | 0.678 | 0.482 | 0.638 | 0.597 | 1.13 | 0.684 | 0.681 | 0.542 | 0.982 | 1.11 | 0.922 | 0.955 | 0.344 | 0.389 | 0.303 | 0.345 | 0.33 | 0.555 | 0.891
10 | NCI-H2347 | 0.943 | 0.965 |  | 0.978 | 0.551 |  | 0.614 | 0.587 | 0.479 | 0.792 | 0.688 | 0.823 | 0.859 | 0.371 | 0.44 | 0.416 | 0.467 | 0.416 | 0.839 | 0.675
11 | NCI-H2405 | 1.05 | 0.869 | 0.762 | 0.956 | 0.933 | 0.947 | 0.919 | 0.875 | 0.922 | 0.984 | 0.845 | 0.706 |  | 1.15 | 1.12 | 1.13 | 1.02 |  |  | 
12 | NCI-H3122 | 1 | 1.14 | 1.03 | 1.04 | 0.71 | 0.618 | 0.701 | 0.693 | 0.66 |  | 1.08 | 1.06 | 1.01 | 0.202 | 0.211 | 0.198 | 0.185 | 0.2 | 1.13 | 1.11
13 | PC-3 [JPC-3] |  | 1.05 | 1.04 |  | 1.22 |  |  | 1.18 | 1.08 | 0.84 | 0.789 | 0.811 | 0.687 | 1.28 |  |  | 1.16 | 1.07 |  | 
14 | PC-14 |  | 1.06 | 0.984 | 1.01 | 0.274 | 0.229 | 0.357 | 0.221 | 0.244 | 1.14 | 1.12 | 1.06 | 0.96 | 0.143 | 0.16 | 0.135 | 0.131 | 0.137 | 0.97 | 0.988
15 | RERF-LC-KJ | 0.879 | 1.03 | 0.872 | 0.94 | 1.03 | 0.933 | 1.1 |  | 0.898 | 1.09 | 1 | 0.83 | 0.954 | 0.448 | 0.369 | 0.507 | 0.487 | 0.43 | 1.08 | 0.999
16 | SK-LU-1 | 1.58 | 1.15 |  | 0.951 | 0.379 | 0.457 | 0.462 |  |  | 1.14 | 0.885 | 0.861 | 1.01 | 1.04 | 1.2 | 1.1 | 1.03 | 1.04 | 1.22 | 
17 | SK-MES-1 | 1.07 | 1.23 | 1.06 | 1.19 | 0.778 | 0.742 | 0.92 | 0.684 | 0.711 | 1.41 | 1.33 | 1.37 | 1.44 |  | 1.02 | 1.04 | 0.889 | 0.857 | 1.19 | 1.29
18 | SW 1573 | 0.879 | 0.799 | 0.685 | 0.809 | 0.62 | 0.704 | 0.425 | 0.485 | 0.559 | 1.12 | 1.21 | 1.06 | 1.1 | 0.898 | 0.354 |  | 0.86 | 0.811 | 0.965 | 0.955

— the supplement of paper PMC10307832
